Measured values: ChEMBL document CHEMBL1123159, “Quantitative evaluation of the beta 2-adrenoceptor intrinsic activity of N-tert-butylphenylethanolamines” (J Med Chem, 1986)

What was measured:
[1] = biological target: Beta-2 adrenergic receptor (Bos taurus) (UniProt Q28044); assay: Intrinsic activity was measured as concentration of beta-2 adrenergic receptor agonist required for cAMP production; format: functional
[2] = biological target: Beta-2 adrenergic receptor (Bos taurus, UniProt Q28044); assay: Apparent binding affinity constant to beta-2 adrenergic receptor determined using [3H]DHA; conditions: read-out: KD app
[3] = log(1/ISA) value of the compound
[4] = biological target: Beta-2 adrenergic receptor (Bos taurus) (UniProt Q28044); assay: Beta-2 adrenergic receptor intrinsic symphaticomimetic activity relative to salbutamol; format: functional
[5] = biological target: Beta-2 adrenergic receptor (Bos taurus) (UniProt Q28044); assay: Concentration required for maximal (95-100%) beta-2 adrenergic receptor occupancy

Sequence of Beta-2 adrenergic receptor (Bos taurus) (Q28044 whole entry, looked up): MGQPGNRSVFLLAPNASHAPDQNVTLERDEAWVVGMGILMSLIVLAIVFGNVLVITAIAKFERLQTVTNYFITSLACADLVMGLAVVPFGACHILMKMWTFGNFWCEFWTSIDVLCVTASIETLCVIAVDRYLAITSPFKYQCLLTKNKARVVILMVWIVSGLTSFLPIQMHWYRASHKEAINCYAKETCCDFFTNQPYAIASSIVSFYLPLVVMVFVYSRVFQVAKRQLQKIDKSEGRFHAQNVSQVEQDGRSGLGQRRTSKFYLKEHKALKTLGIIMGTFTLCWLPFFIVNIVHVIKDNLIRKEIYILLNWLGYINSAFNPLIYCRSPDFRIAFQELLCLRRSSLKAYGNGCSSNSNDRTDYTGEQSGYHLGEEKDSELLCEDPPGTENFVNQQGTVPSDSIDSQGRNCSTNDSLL
Sequence of Beta-2 adrenergic receptor (Q28044 whole entry): as the sequence (Q28044 whole entry, looked up) above

Structure (SMILES) | cAMP production (pM min-1 mg-1) [1] | Kd [2] [nM] | Log 1/ISA [3] | ISA [4] | Concentration [5] [µM]
CC(C)(C)NCC(O)c1ccc(O)c(O)c1 (stereo not given) [COLTEROL] | 83 | 670 | 0.17 | 0.68 | –
CC(C)(C)NCC(O)c1ccccc1Cl (stereo not given) [TULOBUTEROL] | 61 | – | 0.3 | 0.5 | 10
CC(C)(C)NCC(O)c1ccc(O)c(N)c1 (stereo not given) | 83 | 2170 | 0.17 | 0.68 | –
CC(C)(C)NCC(O)c1ccc(O)c(C(N)=O)c1 (stereo not given) | 24 | 1030 | 0.7 | 0.2 | 30
CC(C)(C)NCC(O)c1cc(Cl)c(O)c(Cl)c1 (stereo not given) | 47 | 6470 | 0.41 | 0.39 | 300
CC(C)(C)NCC(O)c1cc(O)cc(O)c1 (stereo not given) | 50 | – | – | 0.41 | –
CC(C)(C)NCC(O)c1ccccc1 (stereo not given) | 43 | 2940 | 0.46 | 0.35 | 100
CC(C)(C)NCC(O)c1cc(Cl)c(N)c(Cl)c1 (stereo not given) | 64 | – | – | 0.53 | 1
CC(C)(C)NCC(O)c1ccc(O)c(CO)c1 (stereo not given) | 122 | – | – | 1 | 30
CC(C)(C)NCC(O)c1ccc(O)cc1 (stereo not given) | 97 | 1350 | 0.1 | 0.8 | 100
CNc1cc(C(O)CNC(C)(C)C)ccc1O (stereo not given) | 115 | 560 | 0.02 | 0.95 | 30
